According to patent US20120108532A1, “PHARMACEUTICAL COMPOSITION FOR NEUROPROTECTIVE TREATMENT IN PATIENTS WITH ICTUS COMPRISING CITICOLINE AND URIC ACID” (HOSPITAL CLINIC PROVINCIAL DE BARCELONA, priority 2009, published 2012):

Tests used:
[1] = test system: mixed cultures of neurons/glia; experiment: Lactate dehydrogenase (LDH) release assay of cell death after oxygen and glucose deprivation (OGD); type: cell-based, rat; details: 100 μM, added 60 min before, during and after 90 min OGD; read 3 hours 30 minutes after OGD; FIG. 1
Procedure: Mixed cultures of neurons/glia of 18-day rat fetal embryos Sprague-Dawley were prepared as described in Petegnief, V. Saura, J. De Gregorio-Rocasolano, N., and Paul, S. M. (2001) Neuroscience 104, 223-234. The cells were suspended in minimum essential medium (MEM) supplemented by 10% fetal bovine serum and 100 μg/ml gentamicin and placed on 24-well plates previously covered with poly-L-lysine (5 μg/ml) (Nunc, Roskilde, Denmark) with a density of 0.6×10^6 cells/well and cultured at 37° C. in an incubator with 95% atmospheric air/5% CO2. The in vitro medium was partially changed on days 4, 7 and 10 (DIV) with MEM supplemented with B27. The cultures were used in 11/13 DIV. 11.9 mM uric acid was prepared in 1.35 mM lithium carbonate and 5% mannitol. […]
For the lactate dehydrogenase activity assay, cell death was estimated 3 hours 30 minutes after OGD and next lactate dehydrogenase (LDH) activity was measured released in the medium according to a modification of the method of (Wroblewski and LaDue, […]). The reduction of absorbance in 0.75 NADH to 340 nm was followed by a phosphate buffer ([…], pH 7.4) in presence of 4.2 mM pyruvic acid as substrate.

focal cerebral ischemia = details: adult rat; UA given 2 hours before occlusion of the middle cerebral artery or 1 hour after reperfusion; cited from earlier work

O=c1[nH]c(=O)c2[nH]c(=O)[nH]c2[nH]1 [uric acid]
cell viability in ischemic conditions (LDH activity released in the medium) [1]: did not improve the cell viability
resulting cerebral infarction (focal cerebral ischemia): significantly reduces the resulting cerebral infarction
